The conditions of the series: 101.33 kPa, Liquid, Hot disk method.

From the NIST ThermoML archive (doi:10.1016/j.tca.2018.06.008) come the findings set out here.

± gives the expanded uncertainty stated by the source.

In the case of `O` [water], the thermal conductivity reads like this: (298.15 K) 0.6132 ± 0.011 W/m/K; (303.15 K) 0.6201 ± 0.012 W/m/K; (308.15 K) 0.6249 ± 0.012 W/m/K; (313.15 K) 0.6302 ± 0.013 W/m/K; (318.15 K) 0.6368 ± 0.011 W/m/K; (323.15 K) 0.6427 ± 0.014 W/m/K.
For `OCCO` [1,2-ethanediol], the thermal conductivity stood at 0.2514 ± 0.0074 W/m/K (298.15 K); 0.2535 ± 0.0061 W/m/K (303.15 K); 0.2551 ± 0.012 W/m/K (308.15 K); 0.2559 ± 0.0076 W/m/K (313.15 K); 0.2568 ± 0.011 W/m/K (318.15 K); 0.2579 ± 0.011 W/m/K (323.15 K).
